{
  "source": "patent US20240239789A1",
  "about": "“SALTS OF 2-BRO[…] DIETHYLAMIDE” (Ceruvia Lifesciences LLC, priority 2022, published 2024)",
  "type_in_all_cases": "physicochemical",
  "key": {"[1]": {"assay": "Dynamic vapor sorption (DVS) moisture sorption analysis", "experimental": "(§1) Sorption isotherms were obtained using a Hiden Isochema moisture sorption analyser (model IGAsorp), controlled by IGAsorp Systems Software V6.50.48. The sample was maintained at a constant temperature (25° C.) by the instrument controls. The humidity was controlled by mixing streams of dry and wet nitrogen, with a total flow of 250 mL/min. The instrument was verified for relative humidity content by measuring three calibrated Rotronic salt solutions (10-50-88%). The weight change of the sample was monitored as a function of humidity by a microbalance (accuracy +/−0.005 mg). A defined amount of sample was placed in a tared mesh stainless steel basket under ambient conditions. A full experimental cycle typically consisted of three scans (sorption, desorption and sorption) at a constant temperature (25° C.) and 10% RH intervals over a 0-90% range (60 minutes for each humidity level)."}, "[2]": {"assay": "Thermogravimetric analysis (TGA) weight loss after drying", "conditions": "after drying in vacuo at 50° C. for 18 hours; between 25° C. and 200° C.; heating rate 20° C./min", "experimental": "TGA data were collected on a TA Instruments Discovery TGA equipped with a 25-position auto-sampler. The instrument was calibrated using a certified weight and certified Alumel and Nickel for temperature. A predefined amount of the sample, ca. 5 mg, was loaded into a pre-tared aluminum ACCUPIK™ sample pan and platinum crucible and was heated at 20° C./min from ambient (room) temperature to 400° C. unless otherwise stated. A nitrogen purge at 25 mL/min was maintained over the sample. The instrument control, data acquisition and analysis were performed with TA Instruments TRIOS software v4.1.1.33073."}, "[3]": {"assay": "XRPD analysis ex DVS following equilibration at extremes of humidity", "conditions": "0% and 90% relative humidity", "text": "The crystalline salts of 2-Br-LSD were characterized by their powder X-ray diffraction patterns. Powder X-ray diffractograms of the crystalline salts of 2-Br-LSD described herein were collected on a PANalytical X'pert PRO diffractometer using Cu Kα radiation (45 kV, 40 mA), θ-θ goniometer, focusing mirror, divergence slit (½″), soller slits at both incident and divergent beam (4 mm) and a PIXcel detector. Data was presented using X'Pert Data Viewer, version 1.2d. XRPD patterns were acquired under ambient conditions via a transmission foil sample stage (polyimide—Kapton®, 12.7 μm thickness film). The data collection range was 2.994-35° 2θ with a continuous scan speed of 0.202004° s^−1. Lists of major XRPD peaks (relative intensity ≥10%) for the crystalline salts of the present disclosure are tabulated below.\nas §1, with “A defined amount of sample was placed in a tared mesh stainless steel basket under ambient conditions. A full experimental cycle typically consisted of three scans (sorption, desorption and sorption) at a constant temperature (25° C.) and 10% RH intervals over a 0-90% range (60 minutes for each humidity level).” left out"}},
  "data": [
    {"smiles": "Br.CCN(CC)C(=O)[C@@H]1C=C2c3cccc4[nH]c(Br)c(c34)C[C@H]2N(C)C1", "note": "[2-Br-LSD hydrobromide (Form 1), 2-bromolysergic acid diethylamide hydrobromide]", "values": [
      {"measurement": "weight change upon dynamic vapor sorption analysis", "setting": "[1]; 25° C., RH range 0-90%, 10% RH intervals, 60 minutes for each humidity level", "value": "less than 0.5%"},
      {"measurement": "water retained at 0% RH (reversibility of water uptake)", "setting": "[1]; 25° C., desorption to 0% RH", "value": "no water was retained"},
      {"measurement": "further weight increase between 60% RH and 90% RH", "setting": "[1]; 25° C., initial sorption cycle, between 60% RH and 90% RH", "value": 0.2, "unit": "wt %"},
      {"measurement": "water gained during initial sorption cycle up to 60% RH", "setting": "[1]; 25° C., initial sorption cycle, up to 60% RH", "value": 0.21, "unit": "%"},
      {"measurement": "total water uptake", "setting": "[1]; 25° C., initial sorption cycle, up to 90% RH", "value": 0.4, "unit": "%"},
      {"measurement": "hygroscopicity", "setting": "[1]; definition in b65: TGA <1% weight loss and DVS <about 0.5% weight change", "value": "non-hygroscopic"},
      {"measurement": "weight loss upon thermogravimetric analysis", "setting": "[2]", "value": "less than 1%"},
      {"measurement": "solid form change following equilibration at extremes of humidity", "setting": "[3]", "value": "no form change occurred"}
    ]}
  ]
}
